Source: ChEMBL document CHEMBL1141967, “N-Sulfonyl hydroxamate derivatives as inhibitors of class II fructose-1,6-diphosphate aldolase” (Bioorg Med Chem Lett, 2005)

Columns and labels:
[1] = target: T1, Fructose-bisphosphate aldolase class 2 (Escherichia coli K-12, UniProt P0AB71); assay: Inhibitory activity against class II FBP aldolase from Escherichia coli
T1 sequence (P0AB71 whole entry): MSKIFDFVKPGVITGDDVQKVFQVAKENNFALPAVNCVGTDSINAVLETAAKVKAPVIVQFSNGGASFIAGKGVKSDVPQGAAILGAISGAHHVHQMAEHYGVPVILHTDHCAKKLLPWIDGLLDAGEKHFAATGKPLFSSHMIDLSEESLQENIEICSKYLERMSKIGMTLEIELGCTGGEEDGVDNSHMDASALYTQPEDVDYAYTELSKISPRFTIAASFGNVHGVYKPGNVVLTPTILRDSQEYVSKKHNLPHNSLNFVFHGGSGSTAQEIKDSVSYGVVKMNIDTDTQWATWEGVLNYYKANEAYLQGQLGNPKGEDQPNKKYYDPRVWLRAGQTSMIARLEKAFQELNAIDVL

[2] = target: T2, Fructose-bisphosphate aldolase A (Oryctolagus cuniculus, UniProt P00883); assay: Inhibitory activity against class I FBP aldolase from rabbit
T2 sequence (P00883 whole entry): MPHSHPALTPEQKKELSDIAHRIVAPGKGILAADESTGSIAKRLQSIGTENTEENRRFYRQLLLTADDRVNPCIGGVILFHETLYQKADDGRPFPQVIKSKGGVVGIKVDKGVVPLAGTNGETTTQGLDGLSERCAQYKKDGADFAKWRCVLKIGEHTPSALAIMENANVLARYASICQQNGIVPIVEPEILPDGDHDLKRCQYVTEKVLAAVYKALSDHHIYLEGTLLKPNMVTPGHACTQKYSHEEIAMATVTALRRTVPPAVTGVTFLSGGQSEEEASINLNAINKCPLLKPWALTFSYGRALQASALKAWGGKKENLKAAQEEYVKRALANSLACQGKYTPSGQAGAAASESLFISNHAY

Row | Compound | Ki [1] [µM] | Ki [2] [µM]
1 | O=C(CCP(=O)(O)O)NS(=O)(=O)c1ccccc1 | > 10000 | > 10000
2 | O=C(CCP(=O)(O)O)NO | > 1000 | > 1000
3 | O=C(COP(=O)(O)O)NS(=O)(=O)c1ccccc1 | 100 | > 10000
4 | CS(=O)(=O)NC(=O)CCP(=O)(O)O | > 10000 | > 10000
5 | O=C(COP(=O)(O)O)NO [PHOSPHOGLYCOLOHYDROXAMATE] | 0.01 | 1
6 | CS(=O)(=O)NC(=O)COP(=O)(O)O | 350 | > 10000
